This assay has as its system CD2F1 mice, L1210 leukemia ip, survival T/C. Kind of assay: NCI In Vivo Anticancer Drug Screen. Data for tumor model L1210 Leukemia (intraperitoneal) in CD2F1 (CDF1) mice. The following applies: higher = longer survival. In outline: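 Vehicle-treated tumor-bearing mice served as controls (C) for compound-treated mice (T). Reported figure is T divided by C.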
[1] abbreviates: endpoint: mean survival time, dose: 100.0 mg/kg/injection, schedule: Q04DX003 (ip), vehicle: saline with Tween-80.
[2] abbreviates: endpoint: mean survival time, dose: 200.0 mg/kg/injection, schedule: Q04DX003 (ip), vehicle: saline with Tween-80.
Setting [3] is: endpoint: mean survival time, dose: 400.0 mg/kg/injection, schedule: Q04DX003 (ip), vehicle: saline with Tween-80.
[4] abbreviates: endpoint: mean survival time, dose: 100.0 mg/kg/injection, schedule: Q01DX009 (ip), vehicle: saline with Tween-80.
Setting [5] is: endpoint: mean survival time, dose: 400.0 mg/kg/injection, schedule: Q01DX009 (ip), vehicle: saline with Tween-80.
Where [6] appears, read: endpoint: mean survival time, dose: 100.0 mg/kg/injection, schedule: Q01DX001 (ip), vehicle: saline with Tween-80.
[7] abbreviates: endpoint: mean survival time, dose: 200.0 mg/kg/injection, schedule: Q01DX001 (ip), vehicle: saline with Tween-80.
[8] abbreviates: endpoint: mean survival time, dose: 400.0 mg/kg/injection, schedule: Q01DX001 (ip), vehicle: saline with Tween-80.
Setting [9] is: endpoint: mean survival time, dose: 75.0 mg/kg/injection, schedule: Q01DX001 (ip), vehicle: other.
Where [10] appears, read: endpoint: mean survival time, dose: 150.0 mg/kg/injection, schedule: Q01DX001 (ip), vehicle: other.
[11] abbreviates: endpoint: mean survival time, dose: 25.0 mg/kg/injection, schedule: Q01DX009 (ip), vehicle: saline with Tween-80.

Values joined by “and” are separate entries in the source; they are usually repeats but may differ in a detail not shown here. Equal entries are not always repeated. Toxic doses and inconclusive results are not listed.

Regarding `CO[C@]12[C@@H](COC(N)=O)C3=C(C(=O)C(C)=C(NCCCO)C3=O)N1C[C@@H]1[C@H]2N1C` (some centres not stated), the T/C runs as follows: (endpoint: mean survival time, dose: 1.5 mg/kg/injection, schedule: Q01DX001 (ip), vehicle: water) 101 % of control; (endpoint: mean survival time, dose: 3.0 mg/kg/injection, schedule: Q01DX001 (ip), vehicle: water) 101 % of control; (endpoint: mean survival time, dose: 6.0 mg/kg/injection, schedule: Q01DX001 (ip), vehicle: water) 102 % of control; (endpoint: mean survival time, dose: 12.0 mg/kg/injection, schedule: Q01DX001 (ip), vehicle: water) 107 % of control; (endpoint: mean survival time, dose: 18.75 mg/kg/injection, schedule: Q01DX001 (ip), vehicle: distilled water + Tween-80) 104 % of control; (endpoint: mean survival time, dose: 24.0 mg/kg/injection, schedule: Q01DX001 (ip), vehicle: water) 101 % of control. Also, the T/C reads like this: (endpoint: mean survival time, dose: 36.0 mg/kg/injection, schedule: Q01DX001 (ip), vehicle: water) 102 % of control; (endpoint: mean survival time, dose: 37.5 mg/kg/injection, schedule: Q01DX001 (ip), vehicle: distilled water + Tween-80) 107 % of control; (endpoint: mean survival time, dose: 75.0 mg/kg/injection, schedule: Q01DX001 (ip), vehicle: distilled water + Tween-80) 107 % of control; (endpoint: mean survival time, dose: 150.0 mg/kg/injection, schedule: Q01DX001 (ip), vehicle: distilled water + Tween-80) 116 % of control.

Consider `CC(C)(O)C(=O)O`, for which the T/C is, setting by setting: (endpoint: mean survival time, dose: 50.0 mg/kg/injection, schedule: Q01DX009 (ip), vehicle: saline) 96 % of control; (endpoint: mean survival time, dose: 100.0 mg/kg/injection, schedule: Q01DX009 (ip), vehicle: saline) 93 % of control; (endpoint: mean survival time, dose: 200.0 mg/kg/injection, schedule: Q01DX009 (ip), vehicle: saline) 86 % of control.

On to `CC(C)(C)c1cc2c3c(c1)Oc1cc(C(C)(C)C)cc4c1C3(O)c1c(cc(C(C)(C)C)cc1O4)O2`, for which the T/C is 107 % of control (endpoint: median survival time, dose: 3.12 mg/kg/injection, schedule: Q01DX009 (ip), vehicle: Klucel (hydroxypropylcellulose) (HPC)); 112 % of control (endpoint: median survival time, dose: 6.25 mg/kg/injection, schedule: Q01DX009 (ip), vehicle: Klucel (hydroxypropylcellulose) (HPC)); 104 % of control (endpoint: median survival time, dose: 12.5 mg/kg/injection, schedule: Q01DX009 (ip), vehicle: Klucel (hydroxypropylcellulose) (HPC)).

For `COc1ccc(C(O)c2nnc(C(O)c3ccc(OC)cc3)nn2)cc1` (configuration not stated), the T/C by setting is: under setting [1], 86 % of control; under setting [2], 89 % of control; under setting [3], 92 % of control.

For `O=C(CNC(=O)c1ccccc1)N/N=C/c1cccc([N+](=O)[O-])c1`, the T/C was 90 % of control under setting [4] and 89 % of control under setting [5].

Turning to `CC(C)C1OCC(C)(C)C(C(C)C)O1` (configuration not stated), the T/C reads like this: (endpoint: mean survival time, dose: 100.0 mg/kg/injection, schedule: Q04DX002 (ip), vehicle: saline) 107 % of control; (endpoint: mean survival time, dose: 200.0 mg/kg/injection, schedule: Q04DX002 (ip), vehicle: saline) 110 % of control; (endpoint: mean survival time, dose: 400.0 mg/kg/injection, schedule: Q04DX002 (ip), vehicle: saline) 96 % of control.

As to `CCC[CH2][Sn]([CH2]CCC)([n]1cncn1)[n]1cncn1`, the T/C (endpoint: mean survival time, dose: 12.5 mg/kg/injection, schedule: Q04DX003 (ip), vehicle: saline with Tween-80) was 105 % of control.

As to `CN(CCl)S(=O)(=O)c1ccccc1`, the T/C by setting is: under setting [4], 100 % of control; under setting [1], 112 % of control; (endpoint: mean survival time, dose: 200.0 mg/kg/injection, schedule: Q01DX009 (ip), vehicle: saline with Tween-80) 104 % of control; under setting [2], 101 % of control; under setting [5], 102 % of control; under setting [3], 100 % of control.

Take `CC(C)CC(Nc1sc([N+](=O)[O-])cc1[N+](=O)[O-])C(=O)O` (configuration not stated): the T/C was 105 % of control under setting [6], 102 % of control under setting [7] and 107 % of control under setting [8].

Regarding `COc1cc(CNCc2ccccc2)ccc1O`, the T/C was 90 % of control under setting [9]; 93 % of control under setting [10]; 95 % of control (endpoint: mean survival time, dose: 300.0 mg/kg/injection, schedule: Q01DX001 (ip), vehicle: other).

`O=C(c1ccccc1)C1CC2(c3ccccc3)C(=O)C1(c1ccccc1)c1c2c2ccccc2c2ccccc12` (configuration not stated): the T/C reads like this: (endpoint: mean survival time, dose: 50.0 mg/kg/injection, schedule: Q01DX001 (ip), vehicle: saline with Tween-80) 90 % of control; under setting [6], 86 % of control and 94 % of control; under setting [8], 89 % of control.

For `CN(C)Cc1cc(C(C)(C)C)cc(C2CCCCC2)c1O`, the T/C is 100 % of control under setting [1], 100 % of control under setting [2] and 103 % of control under setting [3].

Take `O=C(OCC1OC(n2cnc3c(=S)nc[nH]c32)C(OC(=O)c2ccc([N+](=O)[O-])cc2)C1OC(=O)c1ccc([N+](=O)[O-])cc1)c1ccc([N+](=O)[O-])cc1` (configuration not stated): the T/C (endpoint: mean survival time, dose: 132.0 mg/kg/injection, schedule: Q01DX009 (ip), vehicle: saline with Tween-80) was 157 % of control.

Regarding `CN1NC=Nc2c1[nH]cnc2=S`, the T/C reads like this: under setting [9], 89 % of control; under setting [10], 96 % of control.

Consider `C=C(Br)CC1CCCCC1=O` (configuration not stated), for which the T/C is 94 % of control under setting [6]; 98 % of control (endpoint: mean survival time, dose: 100.0 mg/kg/injection, schedule: Q01DX009 (ip), vehicle: saline sonified); 93 % of control under setting [7]; 94 % of control (endpoint: mean survival time, dose: 200.0 mg/kg/injection, schedule: Q01DX009 (ip), vehicle: saline sonified); 95 % of control under setting [8]; 100 % of control (endpoint: mean survival time, dose: 400.0 mg/kg/injection, schedule: Q01DX009 (ip), vehicle: saline sonified).

Turning to `NC1CCCCC1CC1CCCCC1` (configuration not stated), the T/C runs as follows: under setting [11], 106 % of control; (endpoint: mean survival time, dose: 25.0 mg/kg/injection, schedule: Q04DX003 (ip), vehicle: saline with Tween-80) 97 % of control; (endpoint: mean survival time, dose: 50.0 mg/kg/injection, schedule: Q01DX009 (ip), vehicle: saline with Tween-80) 103 % of control; (endpoint: mean survival time, dose: 50.0 mg/kg/injection, schedule: Q04DX003 (ip), vehicle: saline with Tween-80) 97 % of control; under setting [4], 95 % of control; under setting [1], 98 % of control.

As to `CCCCC(CC)(CO)C(=O)NN` (configuration not stated), the T/C by setting is: under setting [1], 97 % of control; under setting [2], 100 % of control; under setting [3], 97 % of control.

`C[N+](C)(C)/N=C\c1cccc2ccccc12`: the T/C by setting is: (endpoint: mean survival time, dose: 6.25 mg/kg/injection, schedule: Q01DX009 (ip), vehicle: saline with Tween-80) 111 % of control; (endpoint: mean survival time, dose: 12.5 mg/kg/injection, schedule: Q01DX009 (ip), vehicle: saline with Tween-80) 107 % of control; under setting [11], 104 % of control.

`COc1ccccc1NC(=O)Oc1ccc(C(C)(C)C)cc1`: the T/C reads like this: (endpoint: mean survival time, dose: 100.0 mg/kg/injection, schedule: Q04DX002 (ip), vehicle: saline with Tween-80) 96 % of control; (endpoint: mean survival time, dose: 200.0 mg/kg/injection, schedule: Q04DX002 (ip), vehicle: saline with Tween-80) 88 % of control; (endpoint: mean survival time, dose: 400.0 mg/kg/injection, schedule: Q04DX002 (ip), vehicle: saline with Tween-80) 100 % of control.

For the origin of these results see PubChem BioAssay AID256 (DTP/NCI, 2004).
